Data taken from the CheMixHub viscosity set.
Values joined by “and” are separate entries in the source; they are usually repeats but may differ in a detail not shown here. Identical values can stand only once.

Assay: xn = mol fraction of the nth substance listed

O=[N+]([O-])[O-].O=[N+]([O-])[O-].O=[N+]([O-])[O-].[Ce+3] + O
viscosity [mPa·s], 101.3 kPa
Settings | x1 = 0.009125 | x1 = 0.01824 | x1 = 0.02724 | x1 = 0.03472 | x1 = 0.05339 | x1 = 0.06671 | x1 = 0.0744
293.15 K | 1.312 | 1.718 | 2.423 | 3.281 | 6.899 | 13.02 | 19.48
298.15 K | 1.174 | 1.529 | 2.169 | 2.911 | 5.937 | 10.99 | 16.06
308.15 K | 0.9509 | 1.249 | 1.734 | 2.299 | 4.599 | 8.055 | 11.34

Cc1ccccc1 + CCCO
Settings | viscosity [mPa·s]
293.15 K, 100 kPa, x2 = 0.125 | 0.611
293.15 K, 100 kPa, x2 = 0.25 | 0.636
293.15 K, 100 kPa, x2 = 0.375 | 0.747
293.15 K, 100 kPa, x2 = 0.5 | 0.875
293.15 K, 100 kPa, x2 = 0.625 | 1.055
293.15 K, 100 kPa, x2 = 0.75 | 1.312
293.15 K, 100 kPa, x2 = 0.875 | 1.685
298.15 K, 100 kPa, x2 = 0.0553 | 0.5596
298.15 K, 100 kPa, x2 = 0.1089 | 0.572
298.15 K, 100 kPa, x2 = 0.1987 | 0.5972
298.15 K, 100 kPa, x2 = 0.319 | 0.6607
298.15 K, 100 kPa, x2 = 0.4308 | 0.7379
298.15 K, 100 kPa, x2 = 0.5349 | 0.7998
298.15 K, 100 kPa, x2 = 0.632 | 0.9538
298.15 K, 100 kPa, x2 = 0.723 | 1.116
298.15 K, 100 kPa, x2 = 0.8083 | 1.265
298.15 K, 100 kPa, x2 = 0.8884 | 1.563
298.15 K, 100 kPa, x2 = 0.9639 | 1.825
298.15 K, 101 kPa, x2 = 0.1 | 0.558
298.15 K, 101 kPa, x2 = 0.2 | 0.588
298.15 K, 101 kPa, x2 = 0.3 | 0.6389
298.15 K, 101 kPa, x2 = 0.4 | 0.7091
298.15 K, 101 kPa, x2 = 0.5 | 0.801
298.15 K, 101 kPa, x2 = 0.6 | 0.9211
298.15 K, 101 kPa, x2 = 0.7 | 1.08
298.15 K, 101 kPa, x2 = 0.8 | 1.292
298.15 K, 101 kPa, x2 = 0.9 | 1.576
303 K, 101 kPa, x1 = 0.1006 | 1.367
303 K, 101 kPa, x1 = 0.2012 | 1.171
303 K, 101 kPa, x1 = 0.3009 | 1.025
303 K, 101 kPa, x1 = 0.3981 | 0.902
303 K, 101 kPa, x1 = 0.5016 | 0.785
303 K, 101 kPa, x1 = 0.6052 | 0.699
303 K, 101 kPa, x1 = 0.7001 | 0.645
303 K, 101 kPa, x1 = 0.8095 | 0.598
303 K, 101 kPa, x1 = 0.9011 | 0.546
303.15 K, 101.33 kPa, x1 = 0.1141 | 1.376
303.15 K, 101.33 kPa, x1 = 0.1926 | 1.182
303.15 K, 101.33 kPa, x1 = 0.2912 | 0.982
303.15 K, 101.33 kPa, x1 = 0.3778 | 0.866
303.15 K, 101.33 kPa, x1 = 0.4778 | 0.761
303.15 K, 101.33 kPa, x1 = 0.6242 | 0.651
303.15 K, 101.33 kPa, x1 = 0.7421 | 0.587
303.15 K, 101.33 kPa, x1 = 0.8737 | 0.541
303.15 K, 101.33 kPa, x1 = 0.9517 | 0.527
308.15 K, 100 kPa, x2 = 0.0553 | 0.5017
308.15 K, 100 kPa, x2 = 0.1089 | 0.5107
308.15 K, 100 kPa, x2 = 0.1987 | 0.5293
308.15 K, 100 kPa, x2 = 0.319 | 0.572
308.15 K, 100 kPa, x2 = 0.4308 | 0.6289
308.15 K, 100 kPa, x2 = 0.5349 | 0.6996
308.15 K, 100 kPa, x2 = 0.632 | 0.7945
308.15 K, 100 kPa, x2 = 0.723 | 0.8952
308.15 K, 100 kPa, x2 = 0.8083 | 1.019
308.15 K, 100 kPa, x2 = 0.8884 | 1.24
308.15 K, 100 kPa, x2 = 0.9639 | 1.422
308.15 K, 101.33 kPa, x1 = 0.1141 | 1.251
308.15 K, 101.33 kPa, x1 = 0.1926 | 1.078
308.15 K, 101.33 kPa, x1 = 0.2912 | 0.899
308.15 K, 101.33 kPa, x1 = 0.3778 | 0.795
308.15 K, 101.33 kPa, x1 = 0.4778 | 0.703
308.15 K, 101.33 kPa, x1 = 0.6242 | 0.608
308.15 K, 101.33 kPa, x1 = 0.7421 | 0.553
308.15 K, 101.33 kPa, x1 = 0.8737 | 0.514
308.15 K, 101.33 kPa, x1 = 0.9517 | 0.499
313.15 K, 100 kPa, x2 = 0.125 | 0.479
313.15 K, 100 kPa, x2 = 0.25 | 0.495
313.15 K, 100 kPa, x2 = 0.375 | 0.554
313.15 K, 100 kPa, x2 = 0.5 | 0.625
313.15 K, 100 kPa, x2 = 0.625 | 0.728
313.15 K, 100 kPa, x2 = 0.75 | 0.876
313.15 K, 100 kPa, x2 = 0.875 | 1.087
313.15 K, 101.33 kPa, x1 = 0.1141 | 1.15
313.15 K, 101.33 kPa, x1 = 0.1926 | 0.99
313.15 K, 101.33 kPa, x1 = 0.2912 | 0.83
313.15 K, 101.33 kPa, x1 = 0.3778 | 0.736
313.15 K, 101.33 kPa, x1 = 0.4778 | 0.655
313.15 K, 101.33 kPa, x1 = 0.6242 | 0.57
313.15 K, 101.33 kPa, x1 = 0.7421 | 0.521
313.15 K, 101.33 kPa, x1 = 0.8737 | 0.491
313.15 K, 101.33 kPa, x1 = 0.9517 | 0.476

CC[C@H](C)[C@H](N)C(=O)O + O
viscosity, 101 kPa
Settings | 293.15 K | 298.15 K | 303.15 K | 308.15 K | 313.15 K | 318.15 K
x1 = 0.00045 | 1.008 mPa·s | 0.896 mPa·s and 0.896 mPa·s | 0.8028 mPa·s and 0.8027 mPa·s | 0.7244 mPa·s and 0.7243 mPa·s | 0.6578 mPa·s and 0.6577 mPa·s | 0.6022 mPa·s and 0.602 mPa·s
x1 = 0.0009 | 1.019 mPa·s | 0.9057 mPa·s and 0.9059 mPa·s | 0.8118 mPa·s and 0.8118 mPa·s | 0.733 mPa·s and 0.7328 mPa·s | 0.6658 mPa·s and 0.6657 mPa·s | 0.6098 mPa·s and 0.6096 mPa·s
x1 = 0.00135 | 1.03 mPa·s | 0.9164 mPa·s and 0.9165 mPa·s | 0.8217 mPa·s and 0.8217 mPa·s | 0.7422 mPa·s and 0.742 mPa·s | 0.6745 mPa·s and 0.6744 mPa·s | 0.6181 mPa·s and 0.6178 mPa·s
x1 = 0.0018 | 1.042 mPa·s | 0.9273 mPa·s and 0.9275 mPa·s | 0.8319 mPa·s and 0.8318 mPa·s | 0.7516 mPa·s and 0.7515 mPa·s | 0.6834 mPa·s and 0.6832 mPa·s | 0.6265 mPa·s and 0.6261 mPa·s
x1 = 0.002245 | 1.054 mPa·s | 0.9386 mPa·s and 0.9387 mPa·s | 0.8423 mPa·s and 0.8422 mPa·s | 0.7613 mPa·s and 0.7612 mPa·s | 0.6925 mPa·s and 0.6923 mPa·s | 0.6351 mPa·s and 0.6347 mPa·s
x1 = 0.002695 | 1.067 mPa·s | 0.9502 mPa·s and 0.9502 mPa·s | 0.8531 mPa·s and 0.853 mPa·s | 0.7714 mPa·s and 0.7713 mPa·s | 0.702 mPa·s and 0.7018 mPa·s | 0.6438 mPa·s and 0.6434 mPa·s

COc1ccccc1 + CCC(C)O
viscosity [mPa·s], 101.33 kPa
Settings | x1 = 0.0999 | x1 = 0.2001 | x1 = 0.3001 | x1 = 0.3998 | x1 = 0.5 | x1 = 0.6001 | x1 = 0.7 | x1 = 0.8002 | x1 = 0.9
303.15 K | 1.759 | 1.366 | 1.172 | 1.068 | 1.001 | 0.969 | 0.951 | 0.934 | 0.918
313.15 K | 1.335 | 1.068 | 0.932 | 0.862 | 0.843 | 0.831 | 0.816 | 0.803 | 0.792
323.15 K | 1.023 | 0.852 | 0.769 | 0.745 | 0.739 | 0.731 | 0.723 | 0.709 | 0.698
